# Biological target: T1, Tdp1 (Homo sapiens, UniProt Q9NUW8)
# T1 construct: made in house; host or cells: Escherichia coli
# Assay: Real-time detection of Tdp1 activity (5'-FAM/3'-BHQ1 oligonucleotide biosensor)
# Format: biochemical
# Details: 1.5 nM Tdp1, 50 nM oligonucleotide substrate, 26 °C
# Description: We first studied the inhibition potency of our compounds to Tdp1 by using a real-time oligonucleotide biosensor assay that we have previously developed. The assay was based on the ability of Tdp1 to remove the fluorescence quencher from the 3’-end of DNA. The substrate is a 16-mer single-stranded oligonucleotide containing both a 5’-FAM fluorophore and a 3’-BHQ1 quencher.
# A fluorophore quencher-coupled DNA-biosensor for real-time measurement of Tdp1 cleavage activity was recently designed in our laboratory. The biosensor is a 16-mer single-stranded oligonucleotide containing both a 5’-FAM fluorophore donor and a quenching 3’-BHQ1 moiety.
# Recombinant protein Tdp1 was expressed in EsCherichia coli (pET 16B plasmid containing Tdp1 cDNA provided by Dr. K.W. Caldecott, University of Sussex, United Kingdom) and isolated as described. The reaction mixture in a final volume 200 μL contained Tdp1 reaction buffer (50 mM Tris-HCl, 50 mM NaCl, 7 mM β-mercaptoethanol), 50 nM oligonucleotide substrate, and varied concentrations of potential inhibitor. Purified Tdp1 was added in a final concentration of 1.5 nM.
# The reaction mixtures were incubated at a constant temperature of 26 °C in a POLARstar OPTIMA fluorimeter, BMG LABTECH, GmbH, to measure fluorescence intensity every minute (Ex485/Em520 nm). Tdp1 inhibition was calculated by comparing the rate of increase in fluorescence of the biosensor in the presence of the compound to that of DMSO (1.5%) control wells. The measurements were carried out in at least two independent experiments. IC50 values were determined using a six-point concentration response curve. The data were imported into the MARS Data Analysis 2.0 program (BMG LABTECH) and the slope during the linear phase (data from 0 to 7 min) was calculated.
# T1 sequence (Q9NUW8 whole entry): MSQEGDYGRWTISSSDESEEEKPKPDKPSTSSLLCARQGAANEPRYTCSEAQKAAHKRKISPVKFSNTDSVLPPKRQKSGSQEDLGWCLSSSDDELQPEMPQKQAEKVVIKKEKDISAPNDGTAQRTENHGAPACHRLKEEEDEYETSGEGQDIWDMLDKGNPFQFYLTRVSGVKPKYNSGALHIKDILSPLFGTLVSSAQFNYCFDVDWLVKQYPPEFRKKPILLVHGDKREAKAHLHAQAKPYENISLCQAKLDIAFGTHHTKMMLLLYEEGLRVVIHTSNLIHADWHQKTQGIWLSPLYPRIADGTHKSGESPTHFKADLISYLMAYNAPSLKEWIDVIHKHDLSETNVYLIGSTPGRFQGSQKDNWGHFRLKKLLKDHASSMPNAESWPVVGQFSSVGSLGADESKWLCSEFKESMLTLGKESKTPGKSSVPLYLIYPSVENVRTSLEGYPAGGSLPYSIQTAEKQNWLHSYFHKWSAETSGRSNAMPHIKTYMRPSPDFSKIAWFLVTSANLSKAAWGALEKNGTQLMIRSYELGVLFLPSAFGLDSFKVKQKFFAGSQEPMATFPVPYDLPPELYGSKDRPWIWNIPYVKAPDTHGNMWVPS
row,IC50 [nM],Molecule
1,53 ± 3,"CC(=O)C1=C(O)C=C2Oc3c(-c4csc(N/N=C/c5ccc(-c6cccc(Cl)c6)o5)n4)c(O)c(C)c(O)c3[C@]2(C)C1=O [(−)-16r, (2S)-4-Acetyl-10-{2-[(E)-2-{[5-(3-chlorophenyl)furan-2-yl]methylidene}hydrazin-1-yl]-1,3-thiazol-4-yl}-5,11,13-trihydroxy-2,12-dimethyl-8-oxatricyclo[7.4.0.0^2,7]trideca-1(9),4,6,10,12-pentaen-3-one]"
2,57 ± 1,"CC(=O)C1=C(O)C=C2Oc3c(-c4csc(N/N=C/c5c[nH]c6ccccc56)n4)c(O)c(C)c(O)c3[C@]2(C)C1=O [(−)-16p, (2S)-4-Acetyl-5,11,13-trihydroxy-2,12-dimethyl-10-{2-[(E)-2-[(1H-indole-3-yl)methylidene] hydrazin-1-yl]-1,3-thiazol-4-yl}-8-oxatricyclo[7.4.0.0^2,7]trideca-1(9),4,6,10,12-pentaen-3-one]"
3,353 ± 17,"CC(=O)C1=C(O)C=C2Oc3c(-c4csc(N/N=C/c5cccnc5)n4)c(O)c(C)c(O)c3[C@@]2(C)C1=O [(+)-16c, 3-[(1E)-(2-{4-[(1R)-12-Acetyl-3,5,11-trihydroxy-1,4-dimethyl-13-oxo-8-oxatricyclo[7.4.0.0^2,7]trideca-2(7),3,5,9,11-pentaen-6-yl]-1,3-thiazol-2-yl}hydrazin-1-ylidene)methyl]pyridin-1-ium bromide]"
4,54 ± 25,"CC(=O)C1=C(O)C=C2Oc3c(-c4csc(N/N=C/c5ccc(C)s5)n4)c(O)c(C)c(O)c3[C@]2(C)C1=O [(−)-16e, (2S)-4-Acetyl-5,11,13-trihydroxy-2,12-dimethyl-10-{2-[(E)-2-[(5-methylthiophen-2-yl)methylidene]hydrazin-1-yl]-1,3-thiazol-4-yl}-8-oxatricyclo[7.4.0.0^2,7]trideca-1(9),4,6,10,12-pentaen-3-one]"
5,29 ± 9,"CC(=O)C1=C(O)C=C2Oc3c(-c4csc(N/N=C/c5cccn5C)n4)c(O)c(C)c(O)c3[C@]2(C)C1=O [(−)-16n, (2S)-4-Acetyl-5,11,13-trihydroxy-2,12-dimethyl-10-{2-[(E)-2-[(1-methyl-pyrrol-2-yl)methylidene]hydrazin-1-yl]-1,3-thiazol-4-yl}-8-oxatricyclo[7.4.0.0^2,7]trideca-1(9),4,6,10,12-pentaen-3-one]"
6,54 ± 3,"COc1ccc(/C=N/Nc2nc(-c3c(O)c(C)c(O)c4c3OC3=CC(O)=C(C(C)=O)C(=O)[C@]34C)cs2)cc1COc1ccc(F)cc1 [(−)-17a, (2S)-4-Acetyl-10-{2-[(E)-2-({3-[(4-fluorophenoxy)methyl]-4-methoxyphenyl}methylidene)hydrazin-1-yl]-1,3-thiazol-4-yl}-5,11,13-trihydroxy-2,12-dimethyl-8-oxatricyclo[7.4.0.0^2,7]trideca-1(9),4,6,10,12-pentaen-3-one]"
7,52 ± 18,"CC(=O)C1=C(O)C=C2Oc3c(-c4csc(N/N=C/c5cccs5)n4)c(O)c(C)c(O)c3[C@@]2(C)C1=O [(+)-16g, (2R)-4-Acetyl-5,11,13-trihydroxy-2,12-dimethyl-10-{2-[(E)-2-[(thiophen-2-yl)methylidene] hydrazin-1-yl]-1,3-thiazol-4-yl}-8-oxatricyclo[7.4.0.0^2,7]trideca-1(9),4,6,10,12-pentaen-3-one]"
8,71 ± 15,"COc1ccc(/C=N/Nc2nc(-c3c(O)c(C)c(O)c4c3OC3=CC(O)=C(C(C)=O)C(=O)[C@]34C)cs2)cc1CN1CCN(c2ccccc2OC)CC1 [(−)-17j, (2S)-4-Acetyl-10-{2-[(E)-2-[(3-{[4-(2-methoxyphenyl)piperazin-1-yl]methyl}-4-methoxyphenyl)methylidene]hydrazin-1-yl]-1,3-thiazol-4-yl}-5,11,13-trihydroxy-2,12-dimethyl-8-oxatricyclo[7.4.0.0^2,7]trideca-1(9),4,6,10,12-pentaen-3-one]"
9,70 ± 18,"CC(=O)C1=C(O)C=C2Oc3c(-c4csc(N/N=C/c5cc(Br)cs5)n4)c(O)c(C)c(O)c3[C@@]2(C)C1=O [(+)-16h, (2R)-4-Acetyl-5,11,13-trihydroxy-2,12-dimethyl-10-{2-[(E)-2-[(4-bromothiophen-2-yl)methylidene]hydrazin-1-yl]-1,3-thiazol-4-yl}-8-oxatricyclo[7.4.0.0^2,7]trideca-1(9),4,6,10,12-pentaen-3-one]"
10,78 ± 3,"COc1ccc(/C=N/Nc2nc(-c3c(O)c(C)c(O)c4c3OC3=CC(O)=C(C(C)=O)C(=O)[C@]34C)cs2)cc1COc1cccc(F)c1 [(−)-17b, (2S)-4-Acetyl-10-{2-[(E)-2-({3-[(3-fluorophenoxy)methyl]-4-methoxyphenyl}methylidene)hydrazin-1-yl]-1,3-thiazol-4-yl}-5,11,13-trihydroxy-2,12-dimethyl-8-oxatricyclo[7.4.0.0^2,7]trideca-1(9),4,6,10,12-pentaen-3-one]"
11,72 ± 3,"CC(=O)C1=C(O)C=C2Oc3c(-c4csc(N/N=C/c5sccc5C)n4)c(O)c(C)c(O)c3[C@@]2(C)C1=O [(+)-16i, (2R)-4-Acetyl-5,11,13-trihydroxy-2,12-dimethyl-10-{2-[(E)-2-[(3-methylthiophen-2-yl)methylidene]hydrazin-1-yl]-1,3-thiazol-4-yl}-8-oxatricyclo[7.4.0.0^2,7]trideca-1(9),4,6,10,12-pentaen-3-one]"
12,1480 ± 265,"CC(=O)C1=C(O)C=C2Oc3c(-c4csc(N/N=C/c5ccccn5)n4)c(O)c(C)c(O)c3[C@]2(C)C1=O [(−)-16b, 2-[(1E)-(2-{4-[(1S)-12-Acetyl-3,5,11-trihydroxy-1,4-dimethyl-13-oxo-8-oxatricyclo [7.4.0.0^2,7]trideca-2(7),3,5,9,11-pentaen-6-yl]-1,3-thiazol-2-yl}hydrazin-1-ylidene)methyl]pyridin-1-ium bromide]"
13,77 ± 6,"CC(=O)C1=C(O)C=C2Oc3c(-c4csc(N/N=C/c5ccoc5)n4)c(O)c(C)c(O)c3[C@@]2(C)C1=O [(+)-16l, (2R)-4-Acetyl-5,11,13-trihydroxy-2,12-dimethyl-10-{2-[(E)-2-[(furan-3-yl)methylidene] hydrazin-1-yl]-1,3-thiazol-4-yl}-8-oxatricyclo[7.4.0.0^2,7]trideca-1(9),4,6,10,12-pentaen-3-one]"
14,188 ± 3,"CC(=O)C1=C(O)C=C2Oc3c(-c4csc(N/N=C/c5ccc[nH]5)n4)c(O)c(C)c(O)c3[C@@]2(C)C1=O [(+)-16m, (2R)-4-Acetyl-5,11,13-trihydroxy-2,12-dimethyl-10-{2-[(E)-2-[(1H-pyrrol-2-yl)methylidene] hydrazin-1-yl]-1,3-thiazol-4-yl}-8-oxatricyclo[7.4.0.0^2,7]trideca-1(9),4,6,10,12-pentaen-3-one]"
15,142 ± 4,"CC(=O)C1=C(O)C=C2Oc3c(-c4csc(N/N=C/c5ccc([N+](=O)[O-])s5)n4)c(O)c(C)c(O)c3[C@]2(C)C1=O [(−)-16d, (2S)-4-Acetyl-5,11,13-trihydroxy-2,12-dimethyl-10-{2-[(E)-2-[(5-nitrothiophen-2-yl)methylidene]hydrazin-1-yl]-1,3-thiazol-4-yl}-8-oxatricyclo[7.4.0.0^2,7]trideca-1(9),4,6,10,12-pentaen-3-one]"
16,48 ± 2,"COc1ccc(/C=N/Nc2nc(-c3c(O)c(C)c(O)c4c3OC3=CC(O)=C(C(C)=O)C(=O)[C@]34C)cs2)cc1COc1ccc(Cl)c(C)c1 [(−)-17h, (2S)-4-Acetyl-10-{2-[(E)-2-({3-[(4-chloro-3-methylphenoxy)methyl]-4-methoxyphenyl}methylidene)hydrazin-1-yl]-1,3-thiazol-4-yl}-5,11,13-trihydroxy-2,12-dimethyl-8-oxatricyclo[7.4.0.0^2,7]trideca-1(9),4,6,10,12-pentaen-3-one]"
17,139 ± 38,"CC(=O)C1=C(O)C=C2Oc3c(-c4csc(N/N=C/c5ccncc5)n4)c(O)c(C)c(O)c3[C@]2(C)C1=O [(−)-16a, 4-[(1E)-(2-{4-[(1S)-12-Acetyl-3,5,11-trihydroxy-1,4-dimethyl-13-oxo-8-oxatricyclo[7.4.0.0^2,7]trideca-2(7),3,5,9,11-pentaen-6-yl]-1,3-thiazol-2-yl}hydrazin-1-ylidene)methyl]pyridin-1-ium bromide]"
18,91 ± 7,"CC(=O)C1=C(O)C=C2Oc3c(-c4csc(N/N=C/c5ccc(C)s5)n4)c(O)c(C)c(O)c3[C@@]2(C)C1=O [(+)-16e, (2R)-4-Acetyl-5,11,13-trihydroxy-2,12-dimethyl-10-{2-[(E)-2-[(5-methylthiophen-2-yl)methylidene]hydrazin-1-yl]-1,3-thiazol-4-yl}-8-oxatricyclo[7.4.0.0^2,7]trideca-1(9),4,6,10,12-pentaen-3-one]"
19,21 ± 6,"(2R)-4-Acetyl-5,11,13-trihydroxy-2,12-dimethyl-10-{2-[(E)-2-[(1H-2-methyl-indole-3-yl) methylidene]hydrazin-1-yl]-1,3-thiazol-4-yl}-8-oxatricyclo[7.4.0.0^2,7]trideca-1(9),4,6,10,12-pentaen-3-one [(+)-16q]"

# Reference: PMC6832265 (Molecules, 2019)
